{
  "source": "patent US6613322B2",
  "about": "“Method for treating a subject suffering from conditions associated with an extracellular zinc sphingomyelinase” (The Trustees of Columbia University in the City of New York, priority 1997, dated 2003)",
  "system": "LDL",
  "conditions": "10-fold molar excess of choline-phosphate, no SMase",
  "protocol": "Next it was determined which of the three consequences of SMase enzymatic activity, namely, generation of choline-phosphate, generation of ceramide, and depletion of SM, is responsible for LDL aggregation. […] Incubating LDL with a 10-fold molar excess of choline-phosphate was performed.",
  "data": [
    {"smiles": "C[N+](C)(C)CCOP(=O)(O)O", "note": "[choline-phosphate]", "values": [
      {"measurement": "turbidity of LDL", "result": "failed to increase the turbidity of LDL"}
    ]}
  ]
}
